Experimental data: PubChem BioAssay (NCI)
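Protocol summary: plate cells (96-well), add compound at 5 concentrations, incubate 48 h, interpolate endpoints linearly. TGI: concentration producing complete growth inhibition.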

How the values were obtained:
Assay in all cases: NCI anticancer screen, dose series, 48 h
MOLT-4 leukemia = system: MOLT-4 leukemia
HCT-15 colon = system: HCT-15 colon
UACC-62 melanoma = system: UACC-62 melanoma
SNB-19 CNS = system: SNB-19 CNS
SF-268 CNS = system: SF-268 CNS
MALME-3M melanoma = system: MALME-3M melanoma
HCT-116 colon = system: HCT-116 colon
KM12 colon = system: KM12 colon
SF-539 CNS = system: SF-539 CNS
ACHN renal = system: ACHN renal
SK-OV-3 ovarian = system: SK-OV-3 ovarian
MDA-MB-231 breast = system: MDA-MB-231 breast
U251 CNS = system: U251 CNS
CCRF-CEM leukemia = system: CCRF-CEM leukemia
MDA-MB-435 = system: MDA-MB-435
COLO 205 colon = system: COLO 205 colon
OVCAR-8 ovarian = system: OVCAR-8 ovarian
OVCAR-5 ovarian = system: OVCAR-5 ovarian
SW-620 colon = system: SW-620 colon
SK-MEL-28 melanoma = system: SK-MEL-28 melanoma
HCC-2998 colon = system: HCC-2998 colon
T-47D breast = system: T-47D breast
A549 NSCLC = system: A549 NSCLC
UACC-257 melanoma = system: UACC-257 melanoma
OVCAR-4 ovarian = system: OVCAR-4 ovarian
RXF 393 renal = system: RXF 393 renal
UO-31 renal = system: UO-31 renal
SN12C renal = system: SN12C renal
PC-3 prostate = system: PC-3 prostate
786-0 renal = system: 786-0 renal
NCI-H460 lung = system: NCI-H460 lung
HOP-62 NSCLC = system: HOP-62 NSCLC
A498 renal = system: A498 renal
CAKI-1 renal = system: CAKI-1 renal
DU-145 prostate = system: DU-145 prostate
LOX IMVI melanoma = system: LOX IMVI melanoma
NCI-H23 lung = system: NCI-H23 lung
M14 melanoma = system: M14 melanoma
SK-MEL-5 melanoma = system: SK-MEL-5 melanoma
SF-295 CNS = system: SF-295 CNS
SK-MEL-2 melanoma = system: SK-MEL-2 melanoma
HL-60(TB) leukemia = system: HL-60(TB) leukemia
NCI-H522 lung = system: NCI-H522 lung
BT-549 breast = system: BT-549 breast
HT29 colon = system: HT29 colon
HOP-92 NSCLC = system: HOP-92 NSCLC
MCF7 breast = system: MCF7 breast
TK-10 renal = system: TK-10 renal
HS 578T breast = system: HS 578T breast
IGROV1 ovarian = system: IGROV1 ovarian
MDA-N = system: MDA-N
EKVX NSCLC = system: EKVX NSCLC
NCI-H226 lung = system: NCI-H226 lung
SNB-75 CNS = system: SNB-75 CNS
SR leukemia = system: SR leukemia
K-562 leukemia = system: K-562 leukemia
NCI/ADR-RES ovarian = system: NCI/ADR-RES ovarian
OVCAR-3 ovarian = system: OVCAR-3 ovarian

With `CC1=C(C)C(=O)C(C2=C(C3=CC(=O)C(C)=C(C)C3=O)C(=O)C(C)=C(C)C2=O)=CC1=O` the TGI (MOLT-4 leukemia) was over 100 µM, the TGI (HCT-15 colon) was over 61.8 µM and the TGI (UACC-62 melanoma) was 25.9 µM. For the same molecule, the TGI (SNB-19 CNS) was over 100 µM, the TGI (SF-268 CNS) was 34.5 µM and the TGI (MALME-3M melanoma) was 11.4 µM. For the same molecule, the TGI (HCT-116 colon) was over 100 µM, the TGI (KM12 colon) was 30.4 µM and the TGI (SF-539 CNS) was 4.99 µM. For the same molecule, the TGI (ACHN renal) was 18.3 µM, the TGI (SK-OV-3 ovarian) was 32.6 µM and the TGI (MDA-MB-231 breast) was 5.29 µM. For the same molecule, the TGI (U251 CNS) was over 38.2 µM, the TGI (CCRF-CEM leukemia) was over 100 µM and the TGI (MDA-MB-435) was 14.2 µM. The TGI (COLO 205 colon) was 8.07 µM, the TGI (OVCAR-8 ovarian) was over 47.1 µM and the TGI (OVCAR-5 ovarian) was over 34.6 µM. It also gave a TGI (SW-620 colon) of 13 µM, a TGI (SK-MEL-28 melanoma) of 14 µM and a TGI (HCC-2998 colon) of 28.6 µM. It also gave a TGI (T-47D breast) of 7.32 µM, a TGI (A549 NSCLC) of over 84.4 µM and a TGI (UACC-257 melanoma) of 28.4 µM. For the same molecule, the TGI (OVCAR-4 ovarian) was 4.57 µM, the TGI (RXF 393 renal) was 5.16 µM and the TGI (UO-31 renal) was 34.1 µM. For the same molecule, the TGI (SN12C renal) was 47.9 µM, the TGI (PC-3 prostate) was 16 µM and the TGI (786-0 renal) was over 49.4 µM. It also gave a TGI (NCI-H460 lung) of 29.6 µM, a TGI (HOP-62 NSCLC) of 36.5 µM and a TGI (A498 renal) of 21.5 µM. It also gave a TGI (CAKI-1 renal) of 8.87 µM, a TGI (DU-145 prostate) of 30 µM and a TGI (LOX IMVI melanoma) of over 21.3 µM. The TGI (NCI-H23 lung) was 43.1 µM, the TGI (M14 melanoma) was over 40.7 µM and the TGI (SK-MEL-5 melanoma) was 5.85 µM. It also gave a TGI (SF-295 CNS) of 33.8 µM, a TGI (SK-MEL-2 melanoma) of 31 µM and a TGI (HL-60(TB) leukemia) of over 100 µM. It also gave a TGI (NCI-H522 lung) of 5.21 µM, a TGI (BT-549 breast) of 21.6 µM and a TGI (HT29 colon) of 9.02 µM. It also gave a TGI (HOP-92 NSCLC) of over 51.2 µM, a TGI (MCF7 breast) of over 21.1 µM and a TGI (TK-10 renal) of 27 µM. The TGI (HS 578T breast) was over 79.7 µM, the TGI (IGROV1 ovarian) was 31.2 µM and the TGI (MDA-N) was over 20.2 µM. The TGI (EKVX NSCLC) was over 70 µM, the TGI (NCI-H226 lung) was 31.8 µM and the TGI (SNB-75 CNS) was 33.3 µM.
For `COC(=O)C1=CC(=O)OC1(OO)c1ccc(Br)cc1` (stereo not drawn), the TGI (MOLT-4 leukemia) was over 100 µM, the TGI (HCT-15 colon) was over 100 µM and the TGI (UACC-62 melanoma) was over 100 µM. The TGI (SNB-19 CNS) was over 100 µM, the TGI (MALME-3M melanoma) was over 100 µM and the TGI (HCT-116 colon) was over 100 µM. It also gave a TGI (KM12 colon) of over 100 µM, a TGI (SF-539 CNS) of over 100 µM and a TGI (ACHN renal) of over 100 µM. The TGI (SR leukemia) was over 100 µM, the TGI (SK-OV-3 ovarian) was over 100 µM and the TGI (MDA-MB-231 breast) was over 100 µM. For the same molecule, the TGI (U251 CNS) was over 100 µM, the TGI (CCRF-CEM leukemia) was over 100 µM and the TGI (MDA-MB-435) was over 100 µM. For the same molecule, the TGI (COLO 205 colon) was over 100 µM, the TGI (OVCAR-8 ovarian) was over 100 µM and the TGI (OVCAR-5 ovarian) was over 100 µM. It also gave a TGI (SW-620 colon) of over 100 µM, a TGI (SK-MEL-28 melanoma) of over 100 µM and a TGI (HCC-2998 colon) of over 100 µM. It also gave a TGI (T-47D breast) of over 100 µM, a TGI (A549 NSCLC) of over 100 µM and a TGI (UACC-257 melanoma) of over 100 µM. It also gave a TGI (OVCAR-4 ovarian) of over 100 µM, a TGI (RXF 393 renal) of over 100 µM and a TGI (UO-31 renal) of over 100 µM. For the same molecule, the TGI (SN12C renal) was over 100 µM, the TGI (PC-3 prostate) was over 100 µM and the TGI (786-0 renal) was over 100 µM. For the same molecule, the TGI (K-562 leukemia) was over 100 µM, the TGI (NCI/ADR-RES ovarian) was over 100 µM and the TGI (NCI-H460 lung) was over 100 µM. It also gave a TGI (CAKI-1 renal) of over 100 µM, a TGI (DU-145 prostate) of over 100 µM and a TGI (LOX IMVI melanoma) of over 100 µM. It also gave a TGI (NCI-H23 lung) of over 100 µM, a TGI (M14 melanoma) of over 100 µM and a TGI (SK-MEL-5 melanoma) of over 100 µM. The TGI (SF-295 CNS) was over 100 µM, the TGI (OVCAR-3 ovarian) was over 100 µM and the TGI (SK-MEL-2 melanoma) was over 100 µM. The TGI (HL-60(TB) leukemia) was over 100 µM, the TGI (NCI-H522 lung) was over 100 µM and the TGI (BT-549 breast) was over 100 µM. For the same molecule, the TGI (HT29 colon) was over 100 µM, the TGI (HOP-92 NSCLC) was over 100 µM and the TGI (MCF7 breast) was over 100 µM. The TGI (TK-10 renal) was over 100 µM, the TGI (IGROV1 ovarian) was over 100 µM and the TGI (MDA-N) was over 100 µM. It also gave a TGI (EKVX NSCLC) of over 100 µM, a TGI (NCI-H226 lung) of over 100 µM and a TGI (SNB-75 CNS) of over 100 µM.
